US20220356186A1, “PERK INHIBITING PYRROLOPYRIMIDINE COMPOUNDS” (HiberCell, Inc., priority 2019, published 2022)
pIC50: −log10 of the molar value. Where two headings read alike, the source gives them in different places.

Legend:
[1] = target: T1, EIF2AK3 (PERK) catalytic domain (amino acids 536-1116) (Homo sapiens, UniProt Q9NZJ5); experiment: PERK in vitro activity assay (isolated), TR-FRET kinase assay; assay type: biochemical
T1 construct: EIF2AK3 (PERK) catalytic domain (amino acids 536-1116)
T1 sequence (Q9NZJ5 536-1116): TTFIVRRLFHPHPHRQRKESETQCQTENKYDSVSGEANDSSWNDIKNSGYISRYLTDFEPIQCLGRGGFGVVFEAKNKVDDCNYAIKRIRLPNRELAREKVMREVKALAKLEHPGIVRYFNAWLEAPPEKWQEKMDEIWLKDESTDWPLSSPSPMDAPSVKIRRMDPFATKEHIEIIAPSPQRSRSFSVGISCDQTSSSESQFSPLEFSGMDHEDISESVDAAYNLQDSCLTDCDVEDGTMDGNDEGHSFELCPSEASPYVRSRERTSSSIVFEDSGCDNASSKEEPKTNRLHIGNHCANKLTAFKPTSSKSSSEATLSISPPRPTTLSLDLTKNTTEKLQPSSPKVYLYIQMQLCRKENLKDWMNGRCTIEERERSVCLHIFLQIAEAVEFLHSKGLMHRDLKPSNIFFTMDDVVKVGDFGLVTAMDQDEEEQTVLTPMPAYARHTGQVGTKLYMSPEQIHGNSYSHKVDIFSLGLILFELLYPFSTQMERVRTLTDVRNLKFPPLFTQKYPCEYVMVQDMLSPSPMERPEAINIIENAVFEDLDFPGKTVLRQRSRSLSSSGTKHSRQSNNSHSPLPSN
Method in brief: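 TR-FRET read-out: after EDTA stop (10 mM final), Tb-labelled phospho-eIF2a antibody (2 nM) for 90 min; IC50 via 4-parameter nonlinear fit. Reaction: PERK aa 536-1116, GFP-eIF2a 100-200 nM, HEPES pH 7.5 with MgCl2/EGTA/Brij-35, 45 min, room temperature, started by enzyme.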

[2] = tested on: GFP-eIF2α in HEK293 cells; experiment: PERK cellular assay, TR-FRET in HEK293-EGFP-eIF2a cells after tunicamycin-induced ER stress; assay type: cell-based
Method in brief: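 Compounds were added 30 min before a 2 h tunicamycin ([…]) challenge of lentivirally made GFP-eIF2α HEK293 cells, 5000/well; lysate TR-FRET ratio was the read-out.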

Aqueous solubility = assay type: physicochemical
select kinases = experiment: KINOMEscan in vitro competition binding assay for select kinases
[3] = biochemical potency, Table 2, read-out: PERK IC50
[4] = Homo sapiens, HEK293, cellular potency, Table 2, read-out: P-EIF2α IC50
[5] = isolated PERK enzyme, 1.5 μM ATP, read-out: Biochemical IC50
[6] = HEK293-EGFP-eIF2a cells, tunicamycin 2 hours, read-out: Cellular eIF2α IC50

In the case of `Cc1cc(NC(=O)Cc2ccccc2)ccc1-c1cn(C)c2ncnc(N)c12` [Compound A, reference compound], the pIC50 [1, 3] was 8.22, the pIC50 [2, 4] was 7.39 and the “Aq Sol” value (Aqueous solubility) was 14 µM.
With `Cc1cc(NC(=O)C(O)c2ccccc2)ccc1-c1cn(C)c2ncnc(N)c12` (stereo not shown) [Example 6, N-(4-(4-amino-7-methyl-7H-pyrrolo[2,3-d]pyrimidin-5-yl)-3-methylphenyl)-2-hydroxy-2-phenylacetamide] the pIC50 [1, 3] was 8.70, the pIC50 [1, 5] was 7.60 to 9.00 and the pIC50 [2, 6] was 7.60 to 9.00. For the same compound, the pIC50 [2, 4] was 7.64 and the “Aq Sol” value (Aqueous solubility) was 57 µM.
For `Cc1cc(NC(=O)C(O)c2cccc(F)c2)ccc1-c1cn(C)c2ncnc(N)c12` (stereo not shown) [Example 9, N-(4-(4-amino-7-methyl-7H-pyrrolo[2,3-d]pyrimidin-5-yl)-3-methylphenyl)-2-(3-fluorophenyl)-2-hydroxyacetamide], the pIC50 [1, 5] was 7.60 to 9.00, the pIC50 [2, 6] was 7.60 to 9.00 and the “KINOMEscan competition binding, inhibition of AURKB” value (select kinases; kinase AURKB) was “Inhibition (“Inhibition” refers to greater than 50% inhibition)”. For the same compound, the “KINOMEscan competition binding, inhibition of AXL” value (select kinases; kinase AXL) was “No inhibition”, the “KINOMEscan competition binding, inhibition of BLK” value (select kinases; kinase BLK) was “Inhibition (“Inhibition” refers to greater than 50% inhibition)” and the “KINOMEscan competition binding, inhibition of CAMK4” value (select kinases; kinase CAMK4) was “Inhibition (“Inhibition” refers to greater than 50% inhibition)”. The “KINOMEscan competition binding, inhibition of CDK8” value (select kinases; kinase CDK8) was “Inhibition (“Inhibition” refers to greater than 50% inhibition)”, the “KINOMEscan competition binding, inhibition of CDK11” value (select kinases; kinase CDK11) was “Inhibition (“Inhibition” refers to greater than 50% inhibition)” and the “KINOMEscan competition binding, inhibition of CSF1R” value (select kinases; kinase CSF1R) was “Inhibition (“Inhibition” refers to greater than 50% inhibition)”. The “KINOMEscan competition binding, inhibition of EIF2AK1” value (select kinases; kinase EIF2AK1) was “Inhibition (“Inhibition” refers to greater than 50% inhibition)”, the “KINOMEscan competition binding, inhibition of EPHB6” value (select kinases; kinase EPHB6) was “Inhibition (“Inhibition” refers to greater than 50% inhibition)” and the “KINOMEscan competition binding, inhibition of FLT3” value (select kinases; kinase FLT3) was “Inhibition (“Inhibition” refers to greater than 50% inhibition)”. The “KINOMEscan competition binding, inhibition of HIPK4” value (select kinases; kinase HIPK4) was “Inhibition (“Inhibition” refers to greater than 50% inhibition)”, the “KINOMEscan competition binding, inhibition of LOK” value (select kinases; kinase LOK) was “Inhibition (“Inhibition” refers to greater than 50% inhibition)” and the “KINOMEscan competition binding, inhibition of MAP3K2” value (select kinases; kinase MAP3K2) was “Inhibition (“Inhibition” refers to greater than 50% inhibition)”. The “KINOMEscan competition binding, inhibition of MAP3K3” value (select kinases; kinase MAP3K3) was “Inhibition (“Inhibition” refers to greater than 50% inhibition)”, the “KINOMEscan competition binding, inhibition of MAP3K15” value (select kinases; kinase MAP3K15) was “Inhibition (“Inhibition” refers to greater than 50% inhibition)” and the “KINOMEscan competition binding, inhibition of MEK5” value (select kinases; kinase MEK5) was “Inhibition (“Inhibition” refers to greater than 50% inhibition)”. The “KINOMEscan competition binding, inhibition of MKNK2” value (select kinases; kinase MKNK2) was “Inhibition (“Inhibition” refers to greater than 50% inhibition)”, the “KINOMEscan competition binding, inhibition of NEK1” value (select kinases; kinase NEK1) was “Inhibition (“Inhibition” refers to greater than 50% inhibition)” and the “KINOMEscan competition binding, inhibition of NEK5” value (select kinases; kinase NEK5) was “Inhibition (“Inhibition” refers to greater than 50% inhibition)”. The “KINOMEscan competition binding, inhibition of PIK3C2B” value (select kinases; kinase PIK3C2B) was “Inhibition (“Inhibition” refers to greater than 50% inhibition)”, the “KINOMEscan competition binding, inhibition of RIOK2” value (select kinases; kinase RIOK2) was “Inhibition (“Inhibition” refers to greater than 50% inhibition)” and the “KINOMEscan competition binding, inhibition of RIPK1” value (select kinases; kinase RIPK1) was “No Inhibition (“No Inhibition” refers to less than 50% inhibition)”. The “KINOMEscan competition binding, inhibition of RIPK2” value (select kinases; kinase RIPK2) was “Inhibition (“Inhibition” refers to greater than 50% inhibition)”, the “KINOMEscan competition binding, inhibition of RIPK5” value (select kinases; kinase RIPK5) was “Inhibition (“Inhibition” refers to greater than 50% inhibition)” and the “KINOMEscan competition binding, inhibition of TESK1” value (select kinases; kinase TESK1) was “Inhibition (“Inhibition” refers to greater than 50% inhibition)”. The “KINOMEscan competition binding, inhibition of TIE2” value (select kinases; kinase TIE2) was “Inhibition (“Inhibition” refers to greater than 50% inhibition)”, the “KINOMEscan competition binding, inhibition of TRKA” value (select kinases; kinase TRKA) was “Inhibition (“Inhibition” refers to greater than 50% inhibition)” and the “KINOMEscan competition binding, inhibition of TRKB” value (select kinases; kinase TRKB) was “Inhibition (“Inhibition” refers to greater than 50% inhibition)”. For the same compound, the “KINOMEscan competition binding, inhibition of TRKC” value (select kinases; kinase TRKC) was “Inhibition (“Inhibition” refers to greater than 50% inhibition)”, the “KINOMEscan competition binding, inhibition of VRK2” value (select kinases; kinase VRK2) was “Inhibition (“Inhibition” refers to greater than 50% inhibition)” and the “KINOMEscan competition binding, inhibition of YANK1” value (select kinases; kinase YANK1) was “Inhibition (“Inhibition” refers to greater than 50% inhibition)”. The “KINOMEscan competition binding, inhibition of YANK2” value (select kinases; kinase YANK2) was “Inhibition (“Inhibition” refers to greater than 50% inhibition)” and the “KINOMEscan competition binding, inhibition of YSK4” value (select kinases; kinase YSK4) was “Inhibition (“Inhibition” refers to greater than 50% inhibition)”.
